# According to patent publication US6358885B1, “Substituted phenylheterocyclic herbicides” (Mississippi State University, priority 1992, dated 2002):
# Experiments:
# rape = test: Test B preemergence/postemergence greenhouse plant response rating 0 to 10; assay type: in vivo, Brassica napus; conditions: 0 to 10 scale
# Summary of the method: (§1)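 Postemergence treatment of plants two to eighteen cm tall ran alongside preemergence treatment of planted seed, each using compound in a non-phytotoxic solvent.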
# crabgrass = test: as above; assay type: in vivo, Digitaria spp.; conditions: 0 to 10 scale
# Summary of the method: as §1
# wild oat = test: Test C preemergence/postemergence greenhouse plant response rating 0 to 100; assay type: in vivo, Avena fatua; conditions: POSTEMERGENCE
# Summary of the method: (§2)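 Compounds in non-phytotoxic solvent applied preemergence to sandy loam one day after planting, postemergence at the 1–4 leaf stage, or to ~2.5 cm floodwater over silt loam.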
# blackgrass = test: Test B preemergence/postemergence greenhouse plant response rating 0 to 10; assay type: in vivo, Alopecurus myosuroides; conditions: 0 to 10 scale
# Summary of the method: as §1
# wild buckwheat = test: Test C preemergence/postemergence greenhouse plant response rating 0 to 100; assay type: in vivo, Polygonum convolvulus; conditions: POSTEMERGENCE
# Summary of the method: as §2
# dallisgrass = test: Test G preemergence/postemergence greenhouse plant response rating 0 to 100; assay type: in vivo, Paspalum dilatatum; conditions: 0 to 100 scale
# Description: (§3) Seeds, rhizomes, or plant parts of alfalfa (Medicago ativa), annual bluegrass (Poa annua), bermudagrass (Cynodon dactylon), broadleaf signalgrass (Brachiaria plantaginea), common purslane (Portulaca oleracea), common ragweed (Ambrosia elatior), […] (Paspalum dilatatum), goosegrass (Eleusine indica), guineagrass (Panicum maximum), […] exaltata), johnsongrass (Sorghum halepense), large crabgrass (Digitaria sanguinalis), peanut (Arachis hypoagaea), pitted morningglory (Ipomoea lacunosa), purple nutsedge (Cyperus rotundus), sandbur (Cenchrus echinatus), smooth crabgrass (Digitaria ischaemum) and yellow nutsedge (Cyperus esculentus) were planted into greenhouse pots containing greenhouse planting medium. Each pot contained only one plant species. The test compound was dissolved in a non-phytotoxic solvent and applied preemergence and/or postemergence to the plants. Preemergence applications were made within one day of planting the seeds or plant parts. Postemergence applications were applied when the plants were in the two to four leaf stage (three to twenty cm). Test chemicals were dissolved in a non-phytotoxic solvent and applied preemergence and postemergence to the plants. Untreated control plants and treated plants were placed in the greenhouse and visually evaluated for injury at 13 to 21 days after herbicide application. […] A dash (-) response indicates no test result.
# purple nutsedge [1] = test: as above; assay type: in vivo, Cyperus rotundus; conditions: Rate 125 g/ha, 0 to 100 scale
# Description: as §3
# morningglory = test: Test C preemergence/postemergence greenhouse plant response rating 0 to 100; assay type: in vivo, Ipomoea hederacea; conditions: POSTEMERGENCE
# Summary of the method: as §2
# rice = test: Test C flood test plant response rating 0 to 100; assay type: in vivo, Oryza sativa
# Summary of the method: as §2
# wheat = test: Test C preemergence/postemergence greenhouse plant response rating 0 to 100; assay type: in vivo, Triticum aestivum; conditions: POSTEMERGENCE
# Summary of the method: as §2
# purple nutsedge [2] = test: Test B preemergence/postemergence greenhouse plant response rating 0 to 10; assay type: in vivo, Cyperus rotundus; conditions: 0 to 10 scale
# Summary of the method: as §1
# barnyardgrass = test: as above; assay type: in vivo, Echinochloa crus-galli; conditions: 0 to 10 scale
# Summary of the method: as §1
# giant foxtail = test: as above; assay type: in vivo, Setaria faberii; conditions: 0 to 10 scale
# Summary of the method: as §1
# corn = test: Test C preemergence/postemergence greenhouse plant response rating 0 to 100; assay type: in vivo, Zea mays; conditions: POSTEMERGENCE
# Summary of the method: as §2
structure (smiles),measurement,setting,value
C=CCN1C(=O)COc2cc(F)c(-c3nn4c(c3Cl)CCCC4)cc21 [Compound 33],"Plant response rating, Rape","rape; POSTEMERGENCE, Rate 10 g/ha",10
same,"Plant response rating, Rape","rape; POSTEMERGENCE, Rate 50 g/ha",10
same,"Plant response rating, Rape","rape; PREEMERGENCE, Rate 50 g/ha",5
same,"Plant response rating, Crabgrass","crabgrass; POSTEMERGENCE, Rate 10 g/ha",3
same,"Plant response rating, Crabgrass","crabgrass; POSTEMERGENCE, Rate 50 g/ha",5
same,"Plant response rating, Crabgrass","crabgrass; PREEMERGENCE, Rate 10 g/ha",2
same,"Plant response rating, Crabgrass","crabgrass; PREEMERGENCE, Rate 50 g/ha",6
same,"Plant response rating, Wild oat","wild oat; 62 g/ha, 0 to 100 scale",60
same,"Plant response rating (0 to 100), Wild oat",wild oat; Rate 1 g/ha,30
same,"Plant response rating (0 to 100), Wild oat",wild oat; Rate 4 g/ha,40
same,"Plant response rating (0 to 100), Wild oat",wild oat; Rate 16 g/ha,50
same,"Plant response rating, Blackgrass","blackgrass; POSTEMERGENCE, Rate 10 g/ha",4
same,"Plant response rating, Blackgrass","blackgrass; POSTEMERGENCE, Rate 50 g/ha",5
same,"Plant response rating, Blackgrass","blackgrass; PREEMERGENCE, Rate 10 g/ha",3
same,"Plant response rating, Blackgrass","blackgrass; PREEMERGENCE, Rate 50 g/ha",5
same,"Plant response rating, Wild buckwheat","wild buckwheat; 62 g/ha, 0 to 100 scale",100
same,"Plant response rating (0 to 100), Wild buckwheat",wild buckwheat; Rate 1 g/ha,80
same,"Plant response rating (0 to 100), Wild buckwheat",wild buckwheat; Rate 4 g/ha,90
same,"Plant response rating, Dallisgrass","dallisgrass; POSTEMERGENCE, Rate 125 g/ha",0
same,"Plant response rating, Dallisgrass","dallisgrass; POSTEMERGENCE, Rate 250 g/ha",0
same,"Plant response rating, Dallisgrass","dallisgrass; PREEMERGENCE, Rate 125 g/ha",0
same,"Plant response rating, Dallisgrass","dallisgrass; PREEMERGENCE, Rate 250 g/ha",0
same,"Plant response rating, Purple Nutsedge",purple nutsedge [1]; POSTEMERGENCE,10
same,"Plant response rating, Purple Nutsedge",purple nutsedge [1]; PREEMERGENCE,0
same,"Plant response rating, Morningglory","morningglory; 62 g/ha, 0 to 100 scale",100
same,"Plant response rating (0 to 100), Morningglory",morningglory; Rate 1 g/ha,50
same,"Plant response rating (0 to 100), Morningglory",morningglory; Rate 4 g/ha,70
same,"Plant response rating (0 to 100), Morningglory",morningglory; Rate 16 g/ha,90
same,"Plant response rating (0 to 100), Rice Japonica","rice; POSTEMERGENCE section, flood test, Rate 1 g/ha",20
same,"Plant response rating (0 to 100), Rice Japonica","rice; POSTEMERGENCE section, flood test, Rate 4 g/ha",50
same,"Plant response rating (0 to 100), Rice Japonica","rice; Rate 16 g/ha, under POSTEMERGENCE head (flood test species)",60
same,Plant response rating Rice Japonica,"rice; flood test species listed under POSTEMERGENCE, 62 g/ha, 0 to 100 scale",85
same,"Plant response rating, Wheat","wheat; 62 g/ha, 0 to 100 scale",60
same,"Plant response rating (0 to 100), Wheat",wheat; Rate 1 g/ha,30
same,"Plant response rating (0 to 100), Wheat",wheat; Rate 4 g/ha,40
same,"Plant response rating (0 to 100), Wheat",wheat; Rate 16 g/ha,50
same,"Plant response rating, Nutsedge","purple nutsedge [2]; POSTEMERGENCE, Rate 10 g/ha",0
same,"Plant response rating, Nutsedge","purple nutsedge [2]; POSTEMERGENCE, Rate 50 g/ha",5
same,"Plant response rating, Nutsedge","purple nutsedge [2]; PREEMERGENCE, Rate 50 g/ha",0
same,"Plant response rating, Barnyardgrass","barnyardgrass; POSTEMERGENCE, Rate 10 g/ha",4
same,"Plant response rating, Barnyardgrass","barnyardgrass; POSTEMERGENCE, Rate 50 g/ha",7
same,"Plant response rating, Barnyardgrass","barnyardgrass; PREEMERGENCE, Rate 10 g/ha",2
same,"Plant response rating, Barnyardgrass","barnyardgrass; PREEMERGENCE, Rate 50 g/ha",3
same,"Plant response rating, Giant foxtail","giant foxtail; POSTEMERGENCE, Rate 10 g/ha",4
same,"Plant response rating, Giant foxtail","giant foxtail; POSTEMERGENCE, Rate 50 g/ha",4
same,"Plant response rating, Giant foxtail","giant foxtail; PREEMERGENCE, Rate 10 g/ha",2
same,"Plant response rating, Giant foxtail","giant foxtail; PREEMERGENCE, Rate 50 g/ha",7
same,"Plant response rating, Corn","corn; 62 g/ha, 0 to 100 scale",40
same,"Plant response rating (0 to 100), Corn",corn; Rate 1 g/ha,20
same,"Plant response rating (0 to 100), Corn",corn; Rate 4 g/ha,30
same,"Plant response rating (0 to 100), Corn",corn; Rate 16 g/ha,30
